Test results taken from patent US20230382904A1, “SUBSTITUTED 4-([1,2,4]TRIAZOLO[1,5-a]PYRIDIN-6-YL)THIOPHENE-2-CARBOXAMIDE DERIVATIVES AND USE THEREOF” (The Johns Hopkins University, priority 2020, published 2023).

Assays:
DLK = DLK (Homo sapiens (Human), UniProt Q12852); test: DLK biochemical assay (TR-FRET, MKK7 phosphorylation)
Method in brief: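 Catalytic-domain DLK (10 nM) phosphorylates His-MKK7 (15 nM) with 60 μM ATP, 90 min at RT, in pH 7.5 HEPES buffer. Phospho-T275/S277 read by TR-FRET (Eu anti-phospho donor, XL665 anti-His acceptor) after 16 h detection, at 37° C. in 1536 or 4° C. in 384 format.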

LZK = LZK (Homo sapiens (Human), UniProt O43283); test: LZK biochemical assay (TR-FRET, MKK7 phosphorylation)
Method in brief: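 Catalytic-domain LZK (10 nM) phosphorylated His-MKK7 (15 nM) with 15 μM ATP for 90 min at RT. Phospho-T275/S277 detected by Eu-anti-phospho-MKK7/XL665-anti-His TR-FRET after 16 h at 32° C, using the 665/Eu ratio. Buffer: 50 mM Hepes pH 7.5, 10 mM MgCl2, 1 mM DTT.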

Chain of LZK (O43283 168-409): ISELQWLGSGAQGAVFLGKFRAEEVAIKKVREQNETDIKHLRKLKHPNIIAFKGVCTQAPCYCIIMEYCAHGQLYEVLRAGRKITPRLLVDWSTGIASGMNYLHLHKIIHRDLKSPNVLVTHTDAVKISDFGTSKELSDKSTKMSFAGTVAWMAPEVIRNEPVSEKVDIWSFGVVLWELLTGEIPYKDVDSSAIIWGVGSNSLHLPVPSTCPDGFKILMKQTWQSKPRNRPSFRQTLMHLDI
Chain of DLK (Q12852 1-520): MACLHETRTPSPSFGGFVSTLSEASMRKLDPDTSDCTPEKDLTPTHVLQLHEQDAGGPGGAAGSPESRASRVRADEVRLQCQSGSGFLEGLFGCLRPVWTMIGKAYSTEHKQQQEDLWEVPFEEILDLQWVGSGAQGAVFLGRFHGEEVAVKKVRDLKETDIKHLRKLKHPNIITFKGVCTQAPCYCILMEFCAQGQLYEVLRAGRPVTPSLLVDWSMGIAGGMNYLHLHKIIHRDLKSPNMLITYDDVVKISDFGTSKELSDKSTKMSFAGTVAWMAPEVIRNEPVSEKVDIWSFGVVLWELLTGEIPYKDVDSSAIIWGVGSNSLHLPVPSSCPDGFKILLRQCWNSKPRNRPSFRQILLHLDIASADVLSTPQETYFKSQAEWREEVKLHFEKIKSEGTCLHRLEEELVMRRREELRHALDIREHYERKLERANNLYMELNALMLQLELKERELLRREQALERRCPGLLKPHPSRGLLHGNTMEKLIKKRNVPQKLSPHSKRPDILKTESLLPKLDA

Row | Structure (SMILES) | IC50 (DLK) | IC50 (LZK)
1 | CC(C)NC(=O)c1cc(-c2csc(C(N)=O)c2)cn2nc(N)nc12 [Compound 85] | 360 nM | 900 nM
2 | C[C@@H](CO)NC(=O)c1cc(-c2csc(C(N)=O)c2)cn2nc(N)nc12 [Compound 86] | 360 nM | 1100 nM
3 | CC[C@H](C)NC(=O)c1cc(-c2csc(C(=O)N[C@@H](C)c3ccccc3)c2)cn2nc(N)nc12 [Compound 88] | 3.2 nM | 37 nM
4 | C[C@H](NC(=O)c1cc(-c2cc(C(=O)NC3CCC3)c3nc(N)nn3c2)cs1)c1ccc(C(F)(F)F)cc1 [Compound 92] | 55 nM | 2000 nM
5 | CC[C@H](C)NC(=O)c1cc(-c2csc(C(=O)NCc3ccc(F)cc3)c2)cn2nc(N)nc12 [Compound 93] | 11 nM | 41 nM
6 | C[C@H](NC(=O)c1cc(-c2cc(C(=O)N[C@H]3CCOC3)c3nc(N)nn3c2)cs1)c1ccc(F)cc1 [Compound 98] | 7.5 nM | 60 nM
7 | CC(C)NC(=O)c1cc(-c2csc(C(=O)N(C)[C@@H](C)c3ccc(F)cc3)c2)cn2nc(N)nc12 [Compound 99] | 330 nM | 2400 nM
8 | C[C@H](NC(=O)c1cc(-c2cc(C(=O)N[C@@H](C)CO)c3nc(N)nn3c2)cs1)c1nc2ccccc2o1 [Compound 100] | 5.8 nM | 200 nM
9 | C[C@H](NC(=O)c1cc(-c2cc(C(=O)N[C@H]3CCOC3)c3nc(N)nn3c2)cs1)c1ccccc1 [Compound 102] | 4.3 nM | 71 nM
10 | CC[C@H](NC(=O)c1cc(-c2cc(C(=O)N[C@@H]3CCOC3)c3nc(N)nn3c2)cs1)c1ccccc1 [Compound 104] | 1.7 nM | 30.5 nM
11 | C[C@H](NC(=O)c1cc(-c2cc(C(=O)N[C@H]3CCOC3)c3nc(N)nn3c2)cs1)c1ccc(C(F)(F)F)cc1 [Compound 105] | 20 nM | 550 nM
12 | Cc1ccc([C@H](C)NC(=O)c2cc(-c3cc(C(=O)N[C@H]4CCOC4)c4nc(N)nn4c3)cs2)cc1 [Compound 106] | 11 nM | 160 nM
13 | C[C@@H](CO)NC(=O)c1cc(-c2csc(C(=O)N(C)[C@@H](C)c3ccc(F)cc3)c2)cn2nc(N)nc12 [Compound 110] | 82 nM | 470 nM
14 | Nc1nc2c(C(=O)NC3CNC3)cc(-c3csc(C(=O)NCc4ccc(F)cc4)c3)cn2n1 [Compound 113] | 220 nM | 660 nM
15 | C[C@H](NC(=O)c1cc(-c2cc(C(=O)NC3CNC3)c3nc(N)nn3c2)cs1)c1ccc(F)cc1 [Compound 114] | 47 nM | 710 nM
16 | CC[C@H](NC(=O)c1cc(-c2cc(C(=O)N[C@H]3CCOC3)c3nc(N)nn3c2)cs1)c1ccc(F)cc1 [Compound 115] | 1.3 nM | 41 nM
17 | CC[C@H](C)NC(=O)c1cc(-c2csc(C(=O)N[C@@H](COC)c3ccccc3)c2)cn2nc(N)nc12 [Compound 116] | 2.2 nM | 14 nM

Row | Structure (SMILES) | IC50 (DLK) | IC50 (LZK)
18 | CC(C)NC(=O)c1cc(-c2csc(C(=O)NC(COC(F)(F)F)c3ccccc3)c2)cn2nc(N)nc12 (centres unmarked) [Compound 117] | 21 nM | 240 nM
19 | CC(C)NC(=O)c1cc(-c2csc(C(=O)NC3CCCc4cc(F)ccc43)c2)cn2nc(N)nc12 (centres unmarked) [Compound 119] | 24 nM | 505 nM
20 | CC(C)NC(=O)c1cc(-c2csc(C(=O)N[C@H]3CCOc4ccccc43)c2)cn2nc(N)nc12 [Compound 120] | 6.9 nM | 110 nM
21 | CC(C)NC(=O)c1cc(-c2csc(C(=O)N[C@H]3CCCc4ccccc43)c2)cn2nc(N)nc12 [Compound 122] | 6 nM | 360 nM
22 | CC(C)NC(=O)c1cc(-c2csc(C(=O)NC3(c4ccc(F)cc4)CCCC3)c2)cn2nc(N)nc12 [Compound 123] | 2.9 nM | 83 nM
23 | COc1ccc(C(C)(C)NC(=O)c2cc(-c3cc(C(=O)NC(C)C)c4nc(N)nn4c3)cs2)cc1 [Compound 124] | 17 nM | 330 nM
24 | COc1cccc(C(C)(C)NC(=O)c2cc(-c3cc(C(=O)NC(C)C)c4nc(N)nn4c3)cs2)c1 [Compound 125] | 18 nM | 220 nM
25 | COC[C@H](NC(=O)c1cc(-c2cc(C(=O)NC(C)C)c3nc(N)nn3c2)cs1)c1ccc(F)cc1 [Compound 130] | 14 nM | 120 nM
26 | CC(C)NC(=O)c1cc(-c2csc(C(=O)NC3CC(C)(C)Oc4ccccc43)c2)cn2nc(N)nc12 (centres unmarked) [Compound 131] | 63 nM | 1500 nM
27 | CC[C@H](C)NC(=O)c1cc(-c2csc(C(=O)N[C@H](CC)c3ccc(F)cc3)c2)cn2nc(N)nc12 [Compound 133] | 10 nM | 240 nM
28 | CC[C@@H](C)NC(=O)c1cc(-c2csc(C(=O)N[C@H](CC)c3ccc(F)cc3)c2)cn2nc(N)nc12 [Compound 136] | 63 nM | 5600 nM
29 | CC[C@H](NC(=O)c1cc(-c2cc(C(=O)NC3CCC3)c3nc(N)nn3c2)cs1)c1ccc(F)cc1 [Compound 137] | 9.7 nM | 300 nM
30 | CC[C@H](C)NC(=O)c1cc(-c2csc(C(=O)N[C@@H](COC)c3ccc(F)cc3)c2)cn2nc(N)nc12 [Compound 138] | 4.2 nM | 31 nM
31 | COC[C@H](NC(=O)c1cc(-c2cc(C(=O)N[C@H]3CCOC3)c3nc(N)nn3c2)cs1)c1ccc(F)cc1 [Compound 139] | 5.5 nM | 120 nM
32 | CC[C@H](NC(=O)c1cc(-c2cc(C(=O)NC(C)(C)C)c3nc(N)nn3c2)cs1)c1ccc(F)cc1 [Compound 142] | 120 nM | 400 nM
33 | CC[C@H](C)NC(=O)c1cc(-c2csc(C(=O)NC3(c4ccc(F)cc4)CCCC3)c2)cn2nc(N)nc12 [Compound 143] | 8.9 nM | 110 nM

Now from value to molecule:

Row | IC50 (DLK) | IC50 (LZK) | Structure (SMILES)
34 | 11 nM | 48 nM | CC[C@H](C)NC(=O)c1cc(-c2csc(C(=O)NCc3ccccc3)c2)cn2nc(N)nc12 [Compound 87]
35 | 3.7 nM | 51 nM | CC[C@H](NC(=O)c1cc(-c2cc(C(=O)N[C@@H](C)CC)c3nc(N)nn3c2)cs1)c1ccccc1 [Compound 89]
36 | 21 nM | 490 nM | Cc1ccc([C@H](C)NC(=O)c2cc(-c3cc(C(=O)NC(C)C)c4nc(N)nn4c3)cs2)cc1 [Compound 90]
37 | 4.75 nM | 34 nM | CC[C@H](C)NC(=O)c1cc(-c2csc(C(=O)N[C@@H](C)c3ccc(F)cc3)c2)cn2nc(N)nc12 [Compound 94, 2-Amino-N-[(2S)-butan-2-yl]-6-(5-{[(1S)-1-(4-fluorophenyl)ethyl]carbamoyl}thiophen-3-yl)[1,2,4]triazolo[1,5-a]pyridine-8-carboxamide]
38 | 14 nM | 130 nM | CC(C)NC(=O)c1cc(-c2csc(C(=O)N[C@@H](C)c3nc4ccccc4o3)c2)cn2nc(N)nc12 [Compound 95]
39 | 16 nM | 140 nM | CC(C)NC(=O)c1cc(-c2csc(C(=O)N[C@H](C)c3ccccc3)c2)cn2nc(N)nc12 [Compound 97]
40 | 25 nM | 160 nM | Nc1nc2c(C(=O)N[C@H]3CCOC3)cc(-c3csc(C(=O)NCc4ccccc4)c3)cn2n1 [Compound 103]
41 | 5.5 nM | 46 nM | COC[C@H](NC(=O)c1cc(-c2cc(C(=O)N[C@H]3CCOC3)c3nc(N)nn3c2)cs1)c1ccccc1 [Compound 107]
42 | 4 nM | 25 nM | CC[C@H](NC(=O)c1cc(-c2cc(C(=O)NC(C)C)c3nc(N)nn3c2)cs1)c1ccc(F)cc1 [Compound 108]
43 | 7.5 nM | 120 nM | C[C@H](NC(=O)c1cc(-c2cc(C(=O)N[C@H](CO)C(F)(F)F)c3nc(N)nn3c2)cs1)c1ccc(F)cc1 [Compound 109]
44 | 44 nM | 290 nM | Nc1nc2c(C(=O)N[C@H](CO)C(F)(F)F)cc(-c3csc(C(=O)NCc4ccc(F)cc4)c3)cn2n1 [Compound 111]
45 | 210 nM | 5200 nM | CC(C)NC(=O)c1cc(-c2csc(C(=O)N[C@@H](C)c3ccc(OC(F)(F)F)cc3)c2)cn2nc(N)nc12 [Compound 118]
46 | 17 nM | 520 nM | CC(C)NC(=O)c1cc(-c2csc(C(=O)NC3CC(C)(C)Oc4ccccc43)c2)cn2nc(N)nc12 (centres unmarked) [Compound 121]
47 | 980 nM | 3400 nM | CC[C@@H](NC(=O)c1cc(-c2csc(C(=O)NCc3ccc(F)cc3)c2)cn2nc(N)nc12)C(F)(F)F [Compound 126]
48 | 930 nM | 8300 nM | CC[C@@H](NC(=O)c1cc(-c2csc(C(=O)N[C@@H](C)c3ccc(F)cc3)c2)cn2nc(N)nc12)C(F)(F)F [Compound 127]
49 | 110 nM | 620 nM | CC(C)NC(=O)c1cc(-c2csc(C(=O)NCC3CC3)c2)cn2nc(N)nc12 [Compound 128]
50 | 290 nM | 800 nM | CC(C)NC(=O)c1cc(-c2csc(C(=O)NC3COC3)c2)cn2nc(N)nc12 [Compound 129]
51 | 28 nM | 730 nM | CC(C)NC(=O)c1cc(-c2csc(C(=O)NC3CC(C)(C)Oc4ccccc43)c2)cn2nc(N)nc12 (centres unmarked) [Compound 132]
52 | 36 nM | 680 nM | CC[C@@H](NC(=O)c1cc(-c2cc(C(=O)NC(C)C)c3nc(N)nn3c2)cs1)c1ccc(F)cc1 [Compound 134]
53 | 7.4 nM | 250 nM | CC[C@@H](NC(=O)c1cc(-c2cc(C(=O)N[C@H]3CCOC3)c3nc(N)nn3c2)cs1)c1ccc(F)cc1 [Compound 135]
54 | 72 nM | 790 nM | CC[C@H](NC(=O)c1cc(-c2cc(C(=O)NC3(CO)CC3)c3nc(N)nn3c2)cs1)c1ccc(F)cc1 [Compound 140]
55 | 10 nM | 63 nM | CC[C@H](NC(=O)c1cc(-c2cc(C(=O)NC(C)CF)c3nc(N)nn3c2)cs1)c1ccc(F)cc1 (some centres unmarked) [Compound 141]
